Measured values: ChEMBL document CHEMBL1649351, “Synthesis, in vitro antimicrobial and in vivo antitumor evaluation of novel pyrimidoquinolines and its nucleoside derivatives” (Eur J Med Chem, 2011)

How the values were obtained:
Assay type in all cases: functional
Nakaseomyces glabratus = test: Antifungal activity against Candida glabrata at 50 mg/disk after 5 days by agar disk diffusion method
Bacillus subtilis = test: Antibacterial activity against Bacillus subtilis at 50 mg/disk after 24 to 28 hrs by agar disk diffusion method
Lactococcus lactis = test: Antibacterial activity against Streptococcus lactis at 50 mg/disk after 24 to 28 hrs by agar disk diffusion method
Escherichia coli = test: Antibacterial activity against Escherichia coli at 50 mg/disk after 24 to 28 hrs by agar disk diffusion method
Pseudomonas aeruginosa = test: Antibacterial activity against Pseudomonas aeruginosa at 50 mg/disk after 24 to 28 hrs by agar disk diffusion method
Candida albicans = test: Antifungal activity against Candida albicans at 50 mg/disk after 5 days by agar disk diffusion method

Molecule	inhibition zone (IZ) (Nakaseomyces glabratus)	diameter of the inhibition zone (DIZ) (Bacillus subtilis)	diameter of the inhibition zone (DIZ) (Lactococcus lactis)	diameter of the inhibition zone (DIZ) (Escherichia coli)	diameter of the inhibition zone (DIZ) (Pseudomonas aeruginosa)	diameter of the inhibition zone (DIZ) (Candida albicans)	diameter of the inhibition zone (DIZ) (Nakaseomyces glabratus)
NYSTATIN	20 mm						
CCn1cc(C(=O)O)c(=O)c2ccc(C)nc21 [NALIDIXIC ACID]		25 mm	25 mm	25 mm	25 mm		
CC1(C)CC(=O)C2=C(C1)Nc1nc3n(N)c(-c4ccccc4)cn3c(=O)c1C2c1ccc([N+](=O)[O-])cc1 (centres undefined)		20 mm	20 mm	23 mm	23 mm	8 mm	6 mm
CSc1nc2c(c(=O)[nH]1)C(c1ccc([N+](=O)[O-])cc1)C1=C(CC(C)(C)CC1=O)N2 (centres undefined)		13 mm	14 mm	13 mm	14 mm	7 mm	8 mm
CC1(C)CC(=O)C2=C(C1)Nc1nc(N/N=C\c3ccccc3)[nH]c(=O)c1C2c1ccc([N+](=O)[O-])cc1 (centres undefined)		17 mm	18 mm	17 mm	16 mm	7 mm	6 mm
Cc1n[nH]c2nc3c(c(=O)n12)C(c1ccc([N+](=O)[O-])cc1)C1=C(CC(C)(C)CC1=O)N3 (centres undefined)		18 mm	21 mm	18 mm	22 mm	11 mm	11 mm
CSc1nc2c(c(=O)[nH]1)C(c1ccc([N+](=O)[O-])cc1)C1=C(CC(C)(C)CC1=O)N2[C@@H]1O[C@H](COC(C)=O)[C@H](OC(C)=O)[C@H](OC(C)=O)[C@H]1OC(C)=O (some centres undefined)		20 mm	19 mm	25 mm	23 mm	7 mm	8 mm
CC1(C)CC(=O)C2=C(C1)Nc1nc3[nH]nnn3c(=O)c1C2c1ccc([N+](=O)[O-])cc1 (centres undefined)		23 mm	18 mm	20 mm	19 mm	12 mm	10 mm
COc1ccc(/C=N\Nc2nc3c(c(=O)[nH]2)C(c2ccc([N+](=O)[O-])cc2)C2=C(CC(C)(C)CC2=O)N3)cc1 (centres undefined)		15 mm	16 mm	17 mm	16 mm	7 mm	8 mm
CSc1nc2c(c(=O)[nH]1)C(c1ccc([N+](=O)[O-])cc1)C1=C(CC(C)(C)CC1=O)N2[C@@H]1O[C@H](COC(C)=O)[C@@H](OC(C)=O)[C@@H]1OC(C)=O (some centres undefined)		19 mm	20 mm	21 mm	23 mm	8 mm	9 mm
CSc1nc2c(c(=O)[nH]1)C(c1ccc([N+](=O)[O-])cc1)C1=C(CC(C)(C)CC1=O)N2[C@@H]1O[C@H](CO)[C@H](O)[C@H](O)[C@H]1O (some centres undefined)		21 mm	20 mm	22 mm	22 mm	8 mm	7 mm
